Results: patent publication US11608335B2, “Somatostatin modulators and uses thereof” (CRINETICS PHARMACEUTICALS, INC., priority 2018, dated 2023)
pEC50: −log10 of the molar value. Like-named read-outs stand apart in the source and are kept apart here.

Legend:
[1] = target: human somatostatin receptor subtype 5 (Homo sapiens, UniProt P35346); assay: cAMP assay for SST5R (inhibition of cAMP via human SST5 receptor); conditions: for Fold selectivity for SST5 vs SST2: SST5 over SST2, class symbols
[2] = target: T1, human somatostatin receptor subtype 2 (Homo sapiens, UniProt P30874); assay: cAMP assay for SST2R (inhibition of cAMP via human SST2 receptor); type: cell-based; conditions: Table B, read-out: SST2 potency
T1 construct: expressed in transfected cells
Description: cAMP Assay Protocol for SST2R:

[3] = read-out: SST5 potency, inhibition of cAMP via human SST5 receptor, Table B

Chain of human somatostatin receptor subtype 5 (P35346 whole entry): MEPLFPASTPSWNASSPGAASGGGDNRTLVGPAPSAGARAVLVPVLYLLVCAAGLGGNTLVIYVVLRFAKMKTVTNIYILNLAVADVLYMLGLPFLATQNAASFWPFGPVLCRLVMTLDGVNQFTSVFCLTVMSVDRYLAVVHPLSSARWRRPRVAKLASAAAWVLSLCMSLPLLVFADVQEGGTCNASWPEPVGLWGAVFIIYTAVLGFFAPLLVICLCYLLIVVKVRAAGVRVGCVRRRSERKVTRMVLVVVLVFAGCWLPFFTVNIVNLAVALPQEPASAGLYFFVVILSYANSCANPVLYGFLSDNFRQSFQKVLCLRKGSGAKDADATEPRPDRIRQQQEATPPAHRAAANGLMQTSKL
T1 sequence (P30874 whole entry): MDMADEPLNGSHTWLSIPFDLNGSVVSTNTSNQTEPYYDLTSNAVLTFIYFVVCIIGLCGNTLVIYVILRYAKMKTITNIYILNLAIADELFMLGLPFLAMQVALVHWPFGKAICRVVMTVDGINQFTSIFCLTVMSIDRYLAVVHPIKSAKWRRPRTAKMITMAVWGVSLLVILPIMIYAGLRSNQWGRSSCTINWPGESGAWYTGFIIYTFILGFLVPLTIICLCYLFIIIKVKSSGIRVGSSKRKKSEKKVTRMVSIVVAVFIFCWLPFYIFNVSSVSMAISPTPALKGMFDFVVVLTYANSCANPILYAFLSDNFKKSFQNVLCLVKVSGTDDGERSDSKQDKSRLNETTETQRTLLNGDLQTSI

pEC50 [1]	pEC50 [2]	Structure (SMILES)	further results
> 8.00	< 6.00	Cc1cc(F)cc(-c2cncc(-c3nc4c(F)ccc(F)c4[nH]3)c2N2CC(CN)C2)c1 [Compound 1-37, 1-{1-[3-(4,7-difluoro-1H-1,3-benzodiazol-2-yl)-5-(3-fluoro-5-methylphenyl)pyridin-4-yl]azetidin-3-yl}methanamine]	Fold selectivity for SST5 vs SST2 [1]: +++ (+++=≥500); pEC50 [1, 3]: > 8.00
> 8.00	6.00 to 7.00	Cc1ccnc2[nH]c(-c3cncc(-c4cccc(C#N)c4)c3N3CC[C@](C)(N)C3)nc12 [Compound 2-155, 3-{4-[(3S)-3-amino-3-methylpyrrolidin-1-yl]-5-{7-methyl-1H-imidazo[4,5-b]pyridin-2-yl}pyridin-3-yl}benzonitrile]	Fold selectivity for SST5 vs SST2 [1]: ++ (++=100 to 499); pEC50 [1, 3]: > 8.00
> 8.00	6.00 to 7.00	CC1(N)CCN(c2c(-c3ccnc(C#N)c3)cncc2-c2nc3cccc(C(F)(F)F)c3[nH]2)C1 (stereo not shown) [Compound 2-148, 4-(3-amino-3-methylpyrrolidin-1-yl)-5-[4-(trifluoromethyl)-1H-1,3-benzodiazol-2-yl]-[3,4′-bipyridine]-2′-carbonitrile]	Fold selectivity for SST5 vs SST2 [1]: +++ (+++=≥500); pEC50 [1, 3]: > 8.00
–	< 6.00	Cc1cc(F)cc(-c2cncc(-c3nc4c(F)c(F)ccc4[nH]3)c2N2CC(CN)C2)c1 [Compound 1-6, 1-{1-[3-(4,5-difluoro-1H-1,3-benzodiazol-2-yl)-5-(3-fluoro-5-methylphenyl)pyridin-4-yl]azetidin-3-yl}methanamine]	–
–	6.00 to 7.00	Cc1cc(F)cc(-c2cncc(-c3nc4c(F)cc(F)cc4[nH]3)c2N2CC(C(C)N)C2)c1 (stereo not shown) [Compound 1-42, 1-{1-[3-(4,6-difluoro-1H-1,3-benzodiazol-2-yl)-5-(3-fluoro-5-methylphenyl)pyridin-4-yl]azetidin-3-yl}ethan-1-amine]	–
–	6.00 to 7.00	Cc1cc(F)cc(-c2cncc(-c3nc4cc(F)cc(F)c4[nH]3)c2N2CCC(N)C2)c1 (stereo not shown) [Compound 2-1, 1-[3-(4,6-difluoro-1H-1,3-benzodiazol-2-yl)-5-(3-fluoro-5-methylphenyl)pyridin-4-yl]pyrrolidin-3-amine]	–
–	< 6.00	Cc1cc(F)cc(-c2cncc(-c3nc4cc(F)ccc4[nH]3)c2N2CC(CN)C2)c1 [Compound 1-1, 1-{1-[3-(5-fluoro-1H-1,3-benzodiazol-2-yl)-5-(3-fluoro-5-methylphenyl)pyridin-4-yl]azetidin-3-yl}methanamine]	–
–	6.00 to 7.00	N[C@H]1CCN(c2c(-c3cc(F)cc(Cl)c3)cncc2-c2nc3c(F)cccc3[nH]2)C1 [Compound 2-3, (3 S)-1-[3-(3-chloro-5-fluorophenyl)-5-(4-fluoro-1H-1,3-benzodiazol-2-yl)pyridin-4-yl]pyrrolidin-3-amine]	–
–	6.00 to 7.00	Cc1cc(F)cc(-c2cncc(-c3nc4c(F)cccc4[nH]3)c2N2CC[C@H](N)C2)c1 [Compound 2-193, (3S)-1-[3-(4-fluoro-1H-1,3-benzodiazol-2-yl)-5-(3-fluoro-5-methylphenyl)pyridin-4-yl]pyrrolidin-3-amine]	–
6.00 to 7.00	–	Cc1cc(F)cc(-c2cncc(-c3nc4cc(C#N)ccc4[nH]3)c2N2CC(CN)C2)c1 [Compound 1-8, 2-{4-[3-(aminomethyl)azetidin-1-yl]-5-(3-fluoro-5-methylphenyl)pyridin-3-yl}-1H-1,3-benzodiazole-5-carbonitrile]	–
6.00 to 7.00	–	Cc1cc(-c2cncc(-c3nc4cccc(F)c4[nH]3)c2N2CC[C@H](N)C2)cc(N)n1 [Compound 2-130, 4-[(3S)-3-aminopyrrolidin-1-yl]-5-(4-fluoro-1H-1,3-benzodiazol-2-yl)-6′-methyl-[3,4′-bipyridin]-2′-amine]	–
7.00 to 8.00	–	Cc1ccc(-c2cncc(-c3nc4cc(F)cc(F)c4[nH]3)c2N2CC(CN)C2)cc1 [Compound 1-31, 1-{1-[3-(4,6-difluoro-1H-1,3-benzodiazol-2-yl)-5-(4-methylphenyl)pyridin-4-yl]azetidin-3-yl}methanamine]	–
6.00 to 7.00	–	Cc1cc(F)cc(-c2cncc(-c3nc4cc(F)cc(F)c4[nH]3)c2N2CC(O)(CN)C2)c1 [Compound 1-26, 3-(aminomethyl)-1-[3-(4,6-difluoro-1H-1,3-benzodiazol-2-yl)-5-(3-fluoro-5-methylphenyl)pyridin-4-yl]azetidin-3-ol]	–
> 8.00	–	Cc1cccc(-c2cncc(-c3nc4cc(F)cc(F)c4[nH]3)c2N2CC(C(C)N)C2)c1F (stereo not shown) [Compound 1-76, 1-{1-[3-(4,6-difluoro-1H-1,3-benzodiazol-2-yl)-5-(2-fluoro-3-methylphenyl)pyridin-4-yl]azetidin-3-yl}ethan-1-amine]	–
> 8.00	–	Cc1cccc2c1nc(-c1cncc(-c3cc(F)cc(C#N)c3)c1N1CC[C@H](N)C1)n2C [Compound 2-114, 3-{4-[(3S)-3-aminopyrrolidin-1-yl]-5-(1,4-dimethyl-1H-1,3-benzodiazol-2-yl)pyridin-3-yl}-5-fluorobenzonitrile]	–
7.00 to 8.00	–	N[C@H]1CCN(c2c(-c3cc(O)cc(F)c3)cncc2-c2nc3cccc(F)c3[nH]2)C1 [Compound 2-25, 3-{4-[(3S)-3-aminopyrrolidin-1-yl]-5-(4-fluoro-1H-1,3-benzodiazol-2-yl)pyridin-3-yl}-5-fluorophenol]	–

pEC50 [1]	pEC50 [2]	Structure (SMILES)	further results
6.00 to 7.00	–	Cc1cc(-c2cncc(-c3nc4cc(F)cc(F)c4[nH]3)c2N2CC(CN)C2)cc(C(F)(F)F)c1 [Compound 1-33, 1-{1-[3-(4,6-difluoro-1H-1,3-benzodiazol-2-yl)-5-[3-methyl-5-(trifluoromethyl)phenyl]pyridin-4-yl]azetidin-3-yl}methanamine]	–
–	< 6.00	Cc1cc(F)cc(-c2cncc(-c3nc4c(F)cccc4[nH]3)c2N2CC(CN)C2)c1 [Compound 1-2, 1-{1-[3-(4-fluoro-1H-1,3-benzodiazol-2-yl)-5-(3-fluoro-5-methylphenyl)pyridin-4-yl]azetidin-3-yl}methanamine]	–
–	6.00 to 7.00	N#Cc1cc(-c2cncc(-c3nc4c(Cl)cccc4[nH]3)c2N2CC[C@H](N)C2)ccc1F [Compound 2-51, 5-{4-[(3S)-3-aminopyrrolidin-1-yl]-5-(4-chloro-1H-1,3-benzodiazol-2-yl)pyridin-3-yl}-2-fluorobenzonitrile]	–
> 8.00	–	COc1cc(Cl)cc(-c2cncc(-c3nc4c(F)cc(F)cc4[nH]3)c2N2CC(CN)C2)c1 [Compound 1-59, 1-{1-[3-(3-chloro-5-methoxyphenyl)-5-(4,6-difluoro-1H-1,3-benzodiazol-2-yl)pyridin-4-yl]azetidin-3-yl}methanamine]	–
–	< 6.00	CC(N)C1CN(c2c(-c3cc(F)cc(C#N)c3)cncc2-c2nc3c(F)cc(F)cc3[nH]2)C1 (stereo not shown) [Compound 1-64, 3-{4-[3-(1-aminoethyl)azetidin-1-yl]-5-(4,6-difluoro-1H-1,3-benzodiazol-2-yl)pyridin-3-yl}-5-fluorobenzonitrile]	–
7.00 to 8.00	–	CCOc1ccc(-c2cncc(-c3nc4c(F)cc(F)cc4[nH]3)c2N2CC(C(C)N)C2)cc1F (stereo not shown) [Compound 1-72, 1-{1-[3-(4,6-difluoro-1H-1,3-benzodiazol-2-yl)-5-(4-ethoxy-3-fluorophenyl)pyridin-4-yl]azetidin-3-yl}ethan-1-amine]	–
–	6.00 to 7.00	Cc1cc(F)cc(-c2cncc(-c3nc4c(F)cc(F)cc4[nH]3)c2N2CC[C@H](N)C2)c1 (stereo in doubt) [Compound 2-194, 1-[3-(4,6-difluoro-1H-1,3-benzodiazol-2-yl)-5-(3-fluoro-5-methylphenyl)pyridin-4-yl]pyrrolidin-3-amine]	–
7.00 to 8.00	–	Cc1ccc(F)c(-c2cncc(-c3nc4cc(F)cc(F)c4[nH]3)c2N2CC(CN)C2)c1 [Compound 1-45, 1-{1-[3-(4,6-difluoro-1H-1,3-benzodiazol-2-yl)-5-(2-fluoro-5-methylphenyl)pyridin-4-yl]azetidin-3-yl}methanamine]	–
> 8.00	–	CC(N)C1CN(c2c(-c3nc4cc(F)cc(F)c4[nH]3)cncc2-c2cccc(F)c2Cl)C1 (stereo not shown) [Compound 1-74, 1-{1-[3-(2-chloro-3-fluorophenyl)-5-(4,6-difluoro-1H-1,3-benzodiazol-2-yl)pyridin-4-yl]azetidin-3-yl}ethan-1-amine]	–
7.00 to 8.00	–	CC1(N)CCN(c2c(-c3cccc(N4CCOC4=O)c3)cncc2-c2nc3cccc(F)c3[nH]2)C1 (stereo not shown) [Compound 2-17, 3-{3-[4-(3-amino-3-methylpyrrolidin-1-yl)-5-(4-fluoro-1H-1,3-benzodiazol-2-yl)pyridin-3-yl]phenyl}-1,3-oxazolidin-2-one]	–
7.00 to 8.00	–	N#Cc1cccc(-c2cncc(-c3nc4c(F)cccc4[nH]3)c2N2C[C@@H](N)[C@H](O)C2)c1 (racemic) [Compound 2-81, 3-{4-[trans-3-amino-4-hydroxypyrrolidin-1-yl]-5-(4-fluoro-1H-1,3-benzodiazol-2-yl)pyridin-3-yl}benzonitrile]	–
7.00 to 8.00	–	N[C@H]1CCN(c2c(-c3ccc4c(c3)OCC4)cncc2-c2nc3cccc(F)c3[nH]2)C1 [Compound 2-59, (3S)-1-[3-(2,3-dihydro-1-benzofuran-6-yl)-5-(4-fluoro-1H-1,3-benzodiazol-2-yl)pyridin-4-yl]pyrrolidin-3-amine]	–
> 8.00	–	Cn1c(-c2cncc(-c3ccnc(C#N)c3)c2N2CC[C@](C)(N)C2)nc2c(Cl)cccc21 [Compound 2-151, 4-[(3S)-3-amino-3-methylpyrrolidin-1-yl]-5-(4-chloro-1-methyl-1H-1,3-benzodiazol-2-yl)-[3,4′-bipyridine]-2′-carbonitrile]	–
> 8.00	–	Cc1cc(C)c2[nH]c(-c3cncc(-c4ccc(F)c(C#N)c4)c3N3CC[C@](C)(N)C3)nc2n1 [Compound 2-174, 5-{4-[(3S)-3-amino-3-methylpyrrolidin-1-yl]-5-{5,7-dimethyl-1H-imidazo[4,5-b]pyridin-2-yl}pyridin-3-yl}-2-fluorobenzonitrile]	–
–	< 6.00	N#Cc1cc(F)cc(-c2cncc(-c3nc4c(F)cccc4[nH]3)c2N2CC[C@H](N)C2)c1 [Compound 2-8, 3-{4-[(3S)-3-aminopyrrolidin-1-yl]-5-(4-fluoro-1H-1,3-benzodiazol-2-yl)pyridin-3-yl}-5-fluorobenzonitrile]	–
